One data set has as its target T1, KV4.3 (Homo sapiens, UniProt Q9UK17).
T1 construct: expressed in transfected cells
T1 sequence (Q9UK17 1-655): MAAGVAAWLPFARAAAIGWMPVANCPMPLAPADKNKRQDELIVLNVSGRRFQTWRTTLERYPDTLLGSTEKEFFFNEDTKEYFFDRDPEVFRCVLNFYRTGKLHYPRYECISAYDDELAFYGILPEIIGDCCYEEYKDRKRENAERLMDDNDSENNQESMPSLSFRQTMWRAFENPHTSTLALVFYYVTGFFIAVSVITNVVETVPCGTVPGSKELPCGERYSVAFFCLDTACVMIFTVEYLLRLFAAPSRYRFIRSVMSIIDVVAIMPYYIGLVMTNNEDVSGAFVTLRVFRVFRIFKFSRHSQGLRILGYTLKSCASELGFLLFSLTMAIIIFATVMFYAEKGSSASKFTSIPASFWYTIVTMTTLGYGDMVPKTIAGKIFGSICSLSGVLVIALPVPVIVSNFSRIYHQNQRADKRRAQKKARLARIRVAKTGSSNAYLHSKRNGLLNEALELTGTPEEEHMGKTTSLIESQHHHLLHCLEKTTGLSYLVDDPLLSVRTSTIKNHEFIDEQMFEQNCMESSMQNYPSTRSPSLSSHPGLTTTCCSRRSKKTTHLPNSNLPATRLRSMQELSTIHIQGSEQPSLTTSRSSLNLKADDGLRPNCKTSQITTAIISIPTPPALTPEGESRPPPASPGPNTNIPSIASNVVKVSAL
The data set can be described thus: Whole-cell patch clamp on KV4.3 (Ito). Format: cell-based. The conditions noted are these: read-out: Reference compound % inhibition. Here is the method: (§1) and CiPA Initiative Studies
(§2) =============================================================
(§3) In vitro studies on other ion channels […]
(§4) through NaV1.5, KV4.3, KV7.1/mink, Kir2.1, KV1.5, CaV1.2 and CaV3.2 channels.
(§5) 35-mm dish culture in the conditions mentioned in standard cell culture conditions. Experiments were performed with a cell density enabling isolated cells for patch clamping. Cells were continuously superfused with extracellular medium (1-2 mL∙minute-1) at room temperature.
(§6) D-glucose 10, HEPES 10 and the final pH adjusted to 7.4±0.02 with NaOH for recording NaV1.5, KV4.3, KV7.1/mink, Kir2.1, KV1.5 and CaV3.2 currents. It was (in mM): NaCl 110, KCl 4, BaCl2 20, MgCl2 1, D-glucose 20, HEPES 10 and the final pH adjusted to 7.4 ± 0.02 with NaOH for recording the CaV1.2 current. Compositions of the intracellular solution to fill the pipette are […]
(§7) Composition of intracellular solutions used to fill pipette to record currents through NaV1.5, KV4.3, KV7.1/mink, Kir2.1, KV1.5, CaV1.2 and CaV3.2 channels
(§8) Solution to fill the pipette (mM)
(§9) Creatine-phospho kinase 50 U∙mL-1
(§10) After formation of a Gigaohm seal between the patch electrodes and individual cells (pipette resistance range: 2.0 MΩ - 7.0 MΩ; seal resistance range: > 1 GΩ) the cell membrane across the pipette tip was ruptured to assure electrical access to the cell interior (whole-cell patch-configuration). In case the quality of the seal was poor, the process of seal formation was repeated with a different cell and a new pipette. As soon as a stable seal was established outward tail currents were measured upon pulses described in the Table S2. If current density was judged to be too low for measurement, another cell was recorded. […]
(§11) voltage stimulation protocol indicated in the next table continuously run until the steady-state level of block was reached.
(§12) Stimulation conditions used to record currents through NaV1.5, KV4.3, KV7.1/mink, Kir2.1, KV1.5, CaV1.2 and CaV3.2 channels
(§13) Ion channel Holding potential Pulse / duration Frequency Reference compound […]
(§14) (resting / fast / slow sweeps at one (10 mM) inactivated concentration)

The subject of a further data set is late sodium current. Also noted: method as in Johannesen et al., 2016. The conditions noted are these: at the concentrations that caused approximately 20 ms shortening of QTc; ref Johannesen et al., 2016; cited from earlier work.
Another data set addresses T2, Kir2.1 (Homo sapiens, UniProt P63252).
T2 construct: expressed in transfected cells
T2 sequence (P63252 1-427): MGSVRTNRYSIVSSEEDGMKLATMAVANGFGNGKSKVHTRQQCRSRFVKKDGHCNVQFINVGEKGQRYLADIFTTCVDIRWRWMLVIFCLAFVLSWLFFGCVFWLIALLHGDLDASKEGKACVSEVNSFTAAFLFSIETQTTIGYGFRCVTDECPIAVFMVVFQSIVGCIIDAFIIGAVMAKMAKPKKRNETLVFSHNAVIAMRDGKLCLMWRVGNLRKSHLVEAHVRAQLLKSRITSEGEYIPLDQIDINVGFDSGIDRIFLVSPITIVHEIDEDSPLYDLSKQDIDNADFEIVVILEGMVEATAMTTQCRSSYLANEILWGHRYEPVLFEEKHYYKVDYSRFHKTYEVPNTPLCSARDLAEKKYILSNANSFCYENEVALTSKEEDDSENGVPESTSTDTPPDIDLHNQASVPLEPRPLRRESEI
Nature of the data set: Whole-cell patch clamp on Kir2.1 (IK1). Format: cell-based. The conditions noted are these: Kir2.1 IK1; 10 μM. Here is the method: as §1, §2, §3, §4, §5, §6, §7, §8, §9, §10, §11, §12, §13, §14

The next data set concerns the target T3, KV7.1/mink (Homo sapiens, UniProt P51787).
T3 construct: expressed in transfected cells
The data set can be described thus: Whole-cell patch clamp on KV7.1/mink (IKs). Format: cell-based. To be noted: read-out: Reference compound % inhibition. Here is the method: as §1, §2, §3, §4, §5, §6, §7, §8, §9, §10, §11, §12, §13, §14

The target of another data set is T4, CaV3.2 (Homo sapiens, UniProt O95180).
T4 construct: expressed in transfected cells
T4 sequence (O95180 whole entry): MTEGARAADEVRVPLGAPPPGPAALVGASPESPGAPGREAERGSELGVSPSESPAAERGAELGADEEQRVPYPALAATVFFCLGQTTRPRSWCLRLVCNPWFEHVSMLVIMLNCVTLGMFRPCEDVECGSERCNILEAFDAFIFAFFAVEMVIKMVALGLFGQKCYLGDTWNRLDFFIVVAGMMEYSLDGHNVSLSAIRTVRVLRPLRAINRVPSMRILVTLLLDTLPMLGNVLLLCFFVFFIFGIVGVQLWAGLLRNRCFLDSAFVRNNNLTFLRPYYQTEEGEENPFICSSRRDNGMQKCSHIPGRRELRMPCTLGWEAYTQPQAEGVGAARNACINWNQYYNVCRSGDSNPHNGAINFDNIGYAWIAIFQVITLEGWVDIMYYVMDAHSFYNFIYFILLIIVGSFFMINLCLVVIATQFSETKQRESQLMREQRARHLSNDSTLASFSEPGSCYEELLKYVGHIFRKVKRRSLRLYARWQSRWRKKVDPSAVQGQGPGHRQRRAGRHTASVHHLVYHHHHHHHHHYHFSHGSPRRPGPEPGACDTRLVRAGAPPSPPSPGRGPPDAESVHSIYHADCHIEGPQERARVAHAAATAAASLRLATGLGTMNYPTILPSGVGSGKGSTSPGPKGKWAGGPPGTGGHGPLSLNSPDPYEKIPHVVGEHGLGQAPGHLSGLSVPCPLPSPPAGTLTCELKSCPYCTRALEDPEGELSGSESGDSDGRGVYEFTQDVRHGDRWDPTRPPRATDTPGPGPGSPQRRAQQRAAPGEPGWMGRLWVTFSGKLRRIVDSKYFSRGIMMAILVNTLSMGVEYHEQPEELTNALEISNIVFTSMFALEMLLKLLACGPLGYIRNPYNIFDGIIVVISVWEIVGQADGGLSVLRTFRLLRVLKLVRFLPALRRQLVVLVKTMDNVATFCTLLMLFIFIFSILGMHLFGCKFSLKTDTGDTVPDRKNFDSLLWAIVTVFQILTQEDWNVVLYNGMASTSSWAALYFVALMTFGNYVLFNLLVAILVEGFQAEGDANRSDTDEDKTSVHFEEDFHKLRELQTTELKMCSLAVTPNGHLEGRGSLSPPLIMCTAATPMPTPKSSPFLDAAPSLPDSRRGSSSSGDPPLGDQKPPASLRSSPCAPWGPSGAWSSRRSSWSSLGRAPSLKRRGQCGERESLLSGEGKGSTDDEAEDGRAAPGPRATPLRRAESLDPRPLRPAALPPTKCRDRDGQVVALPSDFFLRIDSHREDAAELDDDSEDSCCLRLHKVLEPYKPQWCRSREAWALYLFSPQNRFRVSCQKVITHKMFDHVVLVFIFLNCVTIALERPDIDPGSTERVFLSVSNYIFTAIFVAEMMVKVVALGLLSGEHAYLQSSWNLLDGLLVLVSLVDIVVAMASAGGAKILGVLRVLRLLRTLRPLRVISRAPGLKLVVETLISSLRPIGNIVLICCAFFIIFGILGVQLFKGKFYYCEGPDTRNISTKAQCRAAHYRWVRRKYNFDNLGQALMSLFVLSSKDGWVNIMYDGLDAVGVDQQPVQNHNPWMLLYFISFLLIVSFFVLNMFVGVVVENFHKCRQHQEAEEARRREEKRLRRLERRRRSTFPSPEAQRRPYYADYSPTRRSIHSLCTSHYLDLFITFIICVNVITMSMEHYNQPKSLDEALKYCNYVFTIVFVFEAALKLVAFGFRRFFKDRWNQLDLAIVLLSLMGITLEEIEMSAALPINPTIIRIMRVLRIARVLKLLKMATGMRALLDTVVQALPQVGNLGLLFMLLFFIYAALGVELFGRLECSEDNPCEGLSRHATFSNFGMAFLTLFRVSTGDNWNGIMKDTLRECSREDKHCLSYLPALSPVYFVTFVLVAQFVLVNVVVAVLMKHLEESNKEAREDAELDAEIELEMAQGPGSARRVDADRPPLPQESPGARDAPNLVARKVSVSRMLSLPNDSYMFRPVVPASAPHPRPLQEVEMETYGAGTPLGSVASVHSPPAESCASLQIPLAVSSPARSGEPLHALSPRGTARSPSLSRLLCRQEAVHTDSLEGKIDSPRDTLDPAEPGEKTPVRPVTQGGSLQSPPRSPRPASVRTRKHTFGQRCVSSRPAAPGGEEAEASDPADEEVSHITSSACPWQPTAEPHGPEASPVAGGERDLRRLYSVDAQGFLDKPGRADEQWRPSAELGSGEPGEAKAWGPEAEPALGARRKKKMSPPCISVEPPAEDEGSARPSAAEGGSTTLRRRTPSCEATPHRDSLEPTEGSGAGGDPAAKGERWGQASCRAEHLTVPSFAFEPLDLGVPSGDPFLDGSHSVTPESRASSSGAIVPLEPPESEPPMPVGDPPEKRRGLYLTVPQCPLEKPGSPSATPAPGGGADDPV
Nature of the data set: Whole-cell patch clamp on CaV3.2 (ICaT). The conditions noted are these: read-out: Reference compound % inhibition. Format: cell-based. As to the method: as §1, §2, §3, §4, §5, §6, §7, §8, §9, §10, §11, §12, §13, §14

The target of a further data set is T5, KV1.5 (Homo sapiens, UniProt P22460).
T5 construct: expressed in transfected cells
T5 sequence (P22460 whole entry): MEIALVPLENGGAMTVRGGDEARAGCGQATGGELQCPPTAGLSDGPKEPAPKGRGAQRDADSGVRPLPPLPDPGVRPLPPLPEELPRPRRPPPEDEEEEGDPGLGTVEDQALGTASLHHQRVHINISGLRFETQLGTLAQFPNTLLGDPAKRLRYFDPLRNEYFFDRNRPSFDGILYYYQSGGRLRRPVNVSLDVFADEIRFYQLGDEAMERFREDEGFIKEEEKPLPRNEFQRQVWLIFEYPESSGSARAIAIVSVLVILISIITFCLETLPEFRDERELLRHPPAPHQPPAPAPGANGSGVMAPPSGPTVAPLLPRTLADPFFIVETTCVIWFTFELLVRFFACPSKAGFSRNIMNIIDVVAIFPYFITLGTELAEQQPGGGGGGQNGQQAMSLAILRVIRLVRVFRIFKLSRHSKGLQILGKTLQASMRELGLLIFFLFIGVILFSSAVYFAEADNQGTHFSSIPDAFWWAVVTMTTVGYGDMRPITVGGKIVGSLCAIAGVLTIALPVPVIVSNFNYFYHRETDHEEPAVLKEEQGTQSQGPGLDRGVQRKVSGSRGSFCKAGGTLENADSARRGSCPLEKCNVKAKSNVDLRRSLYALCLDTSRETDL
Nature of the data set: Whole-cell patch clamp on KV1.5 (IKur). Format: cell-based. The conditions noted are these: read-out: Reference compound % inhibition. Here is the method: as §1, §2, §3, §4, §5, §6, §7, §8, §9, §10, §11, §12, §13, §14

For the next data set, the system named is anaesthetized rabbits. As to the method: All the other experimental groups were 100% female. Animals were anaesthetized with sodium pentobarbital (45–60 mg·kg^−1 i.v.), maintained on a heated pad and mechanically ventilated with room air. […] A fluid‐filled catheter was inserted into the carotid artery to measure systemic arterial blood pressure and for blood sampling. A venous catheter was implanted into the jugular vein for infusion of drugs. Standard surface ECG leads I, II and III were monitored continuously to measure ECG intervals and the occurrence of ventricular tachyarrhythmia. Measurements of arterial blood pressures were calculated over 30 s duration at baseline and every 5 min. […] Then, for all determinations, the means of 10–30 consecutive sinus beats were automatically calculated at each time point (i.e. at the end of the stabilization period and then every 5 until 60 min after starting drug infusion) or until the occurrence of premature ventricular beats. Parameters recorded were systolic, diastolic and mean arterial blood pressure (mmHg), heart rate (beats·min^‐1 calculated from RR interval) as well as PR, QRS and QT/QTU intervals (ms), amplitudes of T‐wave and U‐wave (mV) and rhythm disturbances retrieved from ECG signals. […] Arrhythmia were scored according to the following scale: 0 being no arrhythmia, 1 being premature beats, 2 being auriculo‐ventricular blocks, 3 being ventricular tachycardia and 4 being TdP; and scores correspond to the average of maximal life‐threatening arrhythmias recorded during the experiment. […] Haemodynamic and ECG recordings were monitored continuously over 60 min following the start of infusion.

For data set [1], the system named is methoxamine‐sensitized rabbits. Nature of the data set: in vivo. Also noted: species or system rabbit. The conditions noted are these: clofilium 20.5 μg·kg^−1·min^−1. As to the method:
All the other experimental groups were 100% female.
The anaesthetized methoxamine‐sensitized rabbit model of TdP is frequently used to study torsadogenic potential of drugs (Carlsson et al., 1990). Briefly, female animals were pre‐sensitized with i.v. infusion of methoxamine, an α1‐adrenoceptor agonist, delivered at 15 μg·kg^−1·min^−1 (6 mL·h^−1) over 70 min.

In a further data set the test system is rabbit Purkinje fibres. The data set can be described thus: Dofetilide-induced early after-depolarizations and triggered activity in rabbit Purkinje fibres. Format: cell-based. As to the method:
Following a lethal dose of pentobarbital, the hearts of male New Zealand rabbits were immediately excised and immersed in a modified Tyrode solution maintained at room temperature and previously saturated with O2/CO2 (95%/5%). A piece of ventricle containing free running Purkinje fibres was fixed to the silastic bottom of an organ bath perfused with the same solution maintained at 37°C for 30 min. The preparation was then superfused with the modified Tyrode solution and stimulated for 30 min at 2 Hz and then at 1 Hz (2 ms stimulus at twice threshold). […] After a stabilization period of at least 1 h, action potentials typical for Purkinje fibres were recorded. Action potential reproducibility and stability were confirmed during a further 20 min stabilization period. […] Each was applied for 20 min to enable steady state to be reached. In addition, the emergence of early after‐depolarizations (EADs), favoured by calcium loading during the late phase 2 of the prolonged action potential, is recognized as a better marker of pro‐arrhythmic potential than APD prolongation alone.

The subject of another data set is hERG. Also on record: method as in Jonker et al., 2005. The conditions noted are these: simulation study; 95% CI: 12–32 ms; ref Jonker et al., 2005; cited from earlier work.
Another data set deals with canine Purkinje fibres. Also noted: method as in Fazekas et al., 1998. The conditions noted are these: mexiletine (10 mM) added after erythromycin, ref Fazekas et al., 1998; cited from earlier work.
The conditions of data set [2]: in vivo; cited from earlier work.
For data set [3], the system named is hERG channel. The conditions noted are these: cited from earlier work.
A further data set relates to fast INa. To be noted: read-out: IC50 for fast INa; ref Gao et al., 2013; cited from earlier work.
For data set [4], the system named is late INa. The conditions noted are these: read-out: IC50 for late INa; ref Gao et al., 2013; cited from earlier work.
In data set [5] the test system is late INa. To be noted: at clinical Cmax; ref Vicente et al., 2015; cited from earlier work.
For a further data set, the system named is late INa current. Also noted: method as in Obejero‐Paz et al., 2015. To be noted: ref Obejero‐Paz et al., 2015; cited from earlier work.
The subject of data set [6] is hERG channel. To be noted: cited from earlier work. This is another data set of the same source.

Where two headings read alike, the source gives them in different places.

On to `CN(C)[C@@H](CCOc1cccc2ccccc12)c1ccccc1` [Dapoxetine, reference compound], for which, on KV4.3, the inhibition at 30 µM was found to be 74%.

Take `CCN(CC)CC(=O)Nc1c(C)cccc1C` [Lidocaine]: the “block of late sodium current” value with late sodium current is listed as “about 20%”.

As for `COc1ccc(CNCc2cccc3ccccc23)cc1` [ML 133, reference compound], on Kir2.1, the “Reference compound % inhibition” value was “ML 133 (10 μM): 96%”.

For `OC(c1cc(C(F)(F)F)nc2c(C(F)(F)F)cccc12)C1CCCCN1` (centres unmarked) [Mefloquine, reference compound], the inhibition at 10 µM at KV7.1/mink came to 61%.

Take `COCC(=O)O[C@]1(CCN(C)CCCc2nc3ccccc3[nH]2)CCc2cc(F)ccc2[C@@H]1C(C)C` [Mibefradil, reference compound]: the inhibition at 1 µM at CaV3.2 was 83%.

Consider `CC(C)(C)c1ccc(C(O)CCCN2CCC(C(O)(c3ccccc3)c3ccccc3)CC2)cc1` (centres unmarked) [Terfenadine, reference compound], for which the inhibition at 10 µM at KV1.5 was 81%.

`CCCCCCC[N+](CC)(CC)CCCCc1ccc(Cl)cc1` [clofilium, reference compound]: the “QTc interval (ms) (mean ± SEM)” value in the data set with anaesthetized rabbits (both, rabbit, in vivo) was 152 ± 2 ms; in the data set with anaesthetized rabbits (both, rabbit, in vivo, 20 min) it was 157 ± 3 ms; in the data set on anaesthetized rabbits (both, rabbit, in vivo, 30 min), 168 ± 5 ms; in the data set on anaesthetized rabbits (both, rabbit, in vivo, 40 min) it was 172 ± 8 ms. Further, in the data set with anaesthetized rabbits (both, rabbit, in vivo, iv, 60 min), the “prolongation of QTc interval vs. baseline” value is “+13 ± 5%”. The TdP occurrence in the data set on anaesthetized rabbits (clofilium up to 1 mg·kg^−1, n = 3/4) is 75%. For the same compound, the ventricular tachycardia incidence in the data set on anaesthetized rabbits (clofilium up to 1 mg·kg^−1, n = 4/4) was 100%. Also, the “increase in UTA ratio” value in data set [1] is recorded as 90%.

Consider `CN(CCOc1ccc(NS(C)(=O)=O)cc1)CCc1ccc(NS(C)(=O)=O)cc1` [dofetilide, reference compound], for which, in the data set on rabbit Purkinje fibres (0.1 μM), the “induction of EADs or triggered activity” value is “all 10 preparations”. This compound displayed an APD90 in the data set with rabbit Purkinje fibres (dofetilide 0.1 μM for 35 min, 0.25 Hz, trace of Figure 3B) of 593 ms. Further, in the data set on hERG, the “QT prolongation corresponding to a 10% hERG blockade” value is 20 ms.

Consider `Cc1cccc(C)c1OCC(C)N` (centres unmarked) [mexiletine], for which the “disappearance of erythromycin-induced EADs (preparations)” value with canine Purkinje fibres is listed as 7/9. For the same compound, the “block of late sodium current” value with late sodium current is listed as “about 20%”. Besides, the therapeutic concentrations in data set [2] was 3.4 to 9.5 µM. The IC50 in the data set on hERG channel [3] is 3.7 ± 0.7 µM; in the data set with fast INa, 34.6 ± 2.9 µM; in the data set with late INa [4], 17.6 ± 1.9 µM.

As to `COc1ccccc1OCC(O)CN1CCN(CC(=O)Nc2c(C)cccc2C)CC1` (centres unmarked) [ranolazine], the “block of late INa” value in the data set on late INa [5] is reported as 21%.

As to `Fc1ccc(C(OCCN2CCN(CCCc3ccccc3)CC2)c2ccc(F)cc2)cc1` [vanoxerine], the values for the 50% inhibitory concentration (IC50) with late INa current and in the data set with hERG channel [6] were 0.0852 µM and […], respectively.

Source of the values: PMC5715595 (British Journal of Pharmacology, 2017).
